The conditions of series [1]: pH 7.4.
Protocol: Test compounds were prepared as 0.5 mM solutions in 50:50 acetonitrile:water and analyzed by reversed-phase HPLC-UV (wavelength 254 nm) using a Phenomenex Luna C18 100 Å 150 × 4.6 mm 5 μm column with a gradient of aqueous phase (50 mM ammonium acetate, pH 7.4) and mobile phase (acetonitrile) as described.[41],[42]
The next series is described as follows: in vitro. Particulars: PAMPA, pH 7.4.

SMILES strings stand for the structures.

As a reminder, the Papp is the rate of passage across a membrane or cell layer, normalised by area and donor concentration. Higher therefore signals fast passage.

Protocol for in vitro: In vitro ADME experiments were performed exactly as reported.[38]−[40]

For `COc1cc(-c2noc(C(=O)NCCc3ccc(C(=O)N4CCC4)cc3)n2)ccc1F` [compound 62, N-(4-(Azetidine-1-carbonyl)phenethyl)-3-(4-fluoro-3-methoxyphenyl)-1,2,4-oxadiazole-5-carboxamide], the CHI-logDpH7.4 in series [1] came out at 2.6. For the compound `COc1ccc(-c2noc(C(=O)NCCc3ccc(C(=O)O)cc3)n2)cc1OC` [compound 6, 4-[2-[[3-(3,4-Dimethoxyphenyl)-1,2,4-oxadiazole-5-carbonyl]amino]ethyl]benzoic Acid], in the series “in vitro”, the Papp was 0.6 ×10⁻⁶ cm/s. In series [1], `COc1ccc(CCNC(=O)c2nc(-c3ccc(OC)c(OC)c3)no2)cc1OC` [compound 50, 3-(3,4-dimethoxyphenyl)-N-[2-(3,4-dimethoxyphenyl)ethyl]-1,2,4-oxadiazole-5-carboxamide] yielded a CHI-logDpH7.4 of 2.5. The compound also gave a Papp in the series “in vitro” of 7.4 ×10⁻⁶ cm/s.

`CNC(=O)c1ccc(CCNC(=O)c2nc(-c3ccc(OC)c(OC)c3)no2)cc1` [compound 12, 3-(3,4-Dimethoxyphenyl)-N-[2-[4-(methylcarbamoyl)phenyl]ethyl]-1,2,4-oxadiazole-5-carboxamide] showed a CHI-logDpH7.4 in series [1] of 1.8. The compound further yielded a Papp in the series “in vitro” of 4.8 ×10⁻⁶ cm/s.

In turn, `COc1ccc(-c2nc(C(=O)NCCc3ccccc3)no2)cc1OC` [compound 90, 5-(3,4-Dimethoxyphenyl)-N-phenethyl-1,2,4-oxadiazole-3-carboxamide] yielded a CHI-logDpH7.4 in series [1] of 2.9. For `COc1ccc(CCNC(=O)c2nc(-c3ccccc3)no2)cc1OC` [compound 107], the CHI-logDpH7.4 in series [1] is 2.8. For `COc1ccc(-c2noc(C(=O)NCCc3ccc(C(=O)N4CCC4)cc3)n2)cc1F` [compound 61, N-(4-(Azetidine-1-carbonyl)phenethyl)-3-(3-fluoro-4-methoxyphenyl)-1,2,4-oxadiazole-5-carboxamide], in series [1], the CHI-logDpH7.4 is reported as 2.6.

The compound `COc1ccc(-c2noc(C(=O)NCC(C)(C)c3ccccc3)n2)cc1OC` [compound 7, 3-(3,4-Dimethoxyphenyl)-N-(2-methyl-2-phenyl-propyl)-1,2,4-oxadiazole-5-carboxamide] registered a CHI-logDpH7.4 in series [1] of 3.7. In series [1], `COc1ccc(-c2n[nH]c(C(=O)NCCc3ccc(C(=O)N4CCC4)cc3)n2)cc1OC` [compound 101, N-(4-(Azetidine-1-carbonyl)phenethyl)-3-(3,4-dimethoxyphenyl)-1H-1,2,4-triazole-5-carboxamide] displayed a CHI-logDpH7.4 of 1.3. In series [1], `COc1ccc(CCN(C)C(=O)c2nc(-c3ccc(OC)c(OC)c3)no2)cc1OC` [compound 51, 3-(3,4-Dimethoxyphenyl)-N-[2-(3,4-dimethoxyphenyl)ethyl]-N-methyl-1,2,4-oxadiazole-5-carboxamide] showed a CHI-logDpH7.4 of 2.6. As to `O=C(NCCc1ccccc1)c1nc(-c2ccccc2)no1` [compound 4, 3-Phenyl-N-(2-phenylethyl)-1,2,4-oxadiazole-5-carboxamide], in series [1], the CHI-logDpH7.4 was 3.2. `COc1ccc(-c2noc(C(=O)NCCN3CCOCC3)n2)cc1OC` [compound 108] registered a CHI-logDpH7.4 in series [1] of 1.4. In series [1], `COc1ccc(-c2noc(C(=O)NCCc3ccc(C(=O)N4CC(OC)C4)cc3)n2)cc1OC1CCC1` [compound 78, 3-[3-(Cyclobutoxy)-4-methoxy-phenyl]-N-[2-[4-(3-methoxyazetidine-1-carbonyl)phenyl]ethyl]-1,2,4-oxadiazole-5-carboxamide] returned a CHI-logDpH7.4 of 2.9. As to `COc1cccc(CCNC(=O)c2nc(-c3ccc(OC)c(OC)c3)no2)c1` [compound 19, 3-(3,4-Dimethoxyphenyl)-N-[2-(3-methoxyphenyl)ethyl]-1,2,4-oxadiazole-5-carboxamide], the CHI-logDpH7.4 in series [1] came to 2.9.

For `COc1ccc(-c2noc(CNCCc3ccccc3)n2)cc1OC` [compound 53, N-[[3-(3,4-Dimethoxyphenyl)-1,2,4-oxadiazol-5-yl]methyl]-2-phenyl-ethanamine], the CHI-logDpH7.4 in series [1] is given as 2.9.

These data come from paper PMC10683028 (Journal of Medicinal Chemistry, 2023).
